In patent US9499535B2, “Kinase inhibitors” (ORIGENIS GMBH, priority 2011, dated 2016):

Assays:
[1] = target: T1, SYK kinase (Homo sapiens, UniProt P43405); assay: SYK assay (OMNIA Kinase Assay, Invitrogen); type: biochemical; details: apparent Ki calculated from the IC50 using the Cheng-Prusoff equation; 1 mM ATP, 10 μM Peptide Substrate; read-out: SYK Activities: Ki
T1 construct: purchased Invitrogen, Carlsbad
Method in brief: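 Continuous SOX-fluorescence (Omnia) readout of Tyr 7 peptide (10 μM) phosphorylation with 1 mM ATP and 0.2 mM DTT at 30° C, started by SYK addition. Fluorescence (λex 360/λem 485 nm) was read every 30 s for 30 min. IC50 from velocity vs concentration; apparent Ki via Cheng-Prusoff.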

[2] = target: LRRK2 (Homo sapiens, UniProt Q5S007); assay: LRRK2 assay (LanthaScreen Eu Kinase Binding Assay); details: 5 nM LRRK2, 10 nM tracer 236, RT 1 h; read-out: LRRK2 Activites: IC50
Method in brief: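 Kinase binding was detected by europium anti-tag antibody FRET with a competing tracer, so inhibitor binding lowers the FRET signal. IC50 came from a variable-slope sigmoidal fit of emission ratio against inhibitor concentration.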

[3] = target: MYLK (Homo sapiens, UniProt Q15746); assay: MYLK assay (LanthaScreen Eu Kinase Binding Assay); details: 5 nM MYLK, 30 nM tracer 236, RT 1 h; read-out: MYLK Activites: IC50
Description: In the assay LanthaScreen™ Eu Kinase Binding Assay by Invitrogen Corporation (Carlsbad) the effect of invention of a compound on the phosphorylation is determined by measurement of fluorescence intensity emission ratio based on the binding and displacement of a proprietary, Alexa Fluor® 647-labeled, ATP-competitive kinase inhibitor scaffold (kinase tracer) to the kinase of interest as described above.
To the wells of an 384 well small volume plate (Greiner, Frickenhausen) are added (i) the compound under test in 5% DMSO/distilled water (5 μl), (ii) 5 μl of the kinase antibody mixture resulting in a final concentration 5 nM MYLK, 2 nM EU-Anti-GST antibody in 1× kinase buffer A. The reaction was started with addition of (iii) 5 μl resulting in a final concentration of 30 nM tracer 236. The assay plate was incubated at RT for 1 h and fluorescence intensitiy readings were collected using a TECAN M1000 at two wavelengthes of λex 340/λem 615 nm and λex 340/λem 665 nm with a delay time of 100 μs and an integration time of 200 μs after 60 minutes. The emission ratio was calculated by division of the acceptor/tracer emission ([…]) by the antibody/donor emission ([…]). The inhibitor concentration was plotted versus the emission ratio to determine the IC50 using XLFit 5.0 (IDBS, Guildford) to fit to a sigmoidal dose response curve with a variable slope.

Sequence of LRRK2 (Q5S007 970-2527 limits assumed): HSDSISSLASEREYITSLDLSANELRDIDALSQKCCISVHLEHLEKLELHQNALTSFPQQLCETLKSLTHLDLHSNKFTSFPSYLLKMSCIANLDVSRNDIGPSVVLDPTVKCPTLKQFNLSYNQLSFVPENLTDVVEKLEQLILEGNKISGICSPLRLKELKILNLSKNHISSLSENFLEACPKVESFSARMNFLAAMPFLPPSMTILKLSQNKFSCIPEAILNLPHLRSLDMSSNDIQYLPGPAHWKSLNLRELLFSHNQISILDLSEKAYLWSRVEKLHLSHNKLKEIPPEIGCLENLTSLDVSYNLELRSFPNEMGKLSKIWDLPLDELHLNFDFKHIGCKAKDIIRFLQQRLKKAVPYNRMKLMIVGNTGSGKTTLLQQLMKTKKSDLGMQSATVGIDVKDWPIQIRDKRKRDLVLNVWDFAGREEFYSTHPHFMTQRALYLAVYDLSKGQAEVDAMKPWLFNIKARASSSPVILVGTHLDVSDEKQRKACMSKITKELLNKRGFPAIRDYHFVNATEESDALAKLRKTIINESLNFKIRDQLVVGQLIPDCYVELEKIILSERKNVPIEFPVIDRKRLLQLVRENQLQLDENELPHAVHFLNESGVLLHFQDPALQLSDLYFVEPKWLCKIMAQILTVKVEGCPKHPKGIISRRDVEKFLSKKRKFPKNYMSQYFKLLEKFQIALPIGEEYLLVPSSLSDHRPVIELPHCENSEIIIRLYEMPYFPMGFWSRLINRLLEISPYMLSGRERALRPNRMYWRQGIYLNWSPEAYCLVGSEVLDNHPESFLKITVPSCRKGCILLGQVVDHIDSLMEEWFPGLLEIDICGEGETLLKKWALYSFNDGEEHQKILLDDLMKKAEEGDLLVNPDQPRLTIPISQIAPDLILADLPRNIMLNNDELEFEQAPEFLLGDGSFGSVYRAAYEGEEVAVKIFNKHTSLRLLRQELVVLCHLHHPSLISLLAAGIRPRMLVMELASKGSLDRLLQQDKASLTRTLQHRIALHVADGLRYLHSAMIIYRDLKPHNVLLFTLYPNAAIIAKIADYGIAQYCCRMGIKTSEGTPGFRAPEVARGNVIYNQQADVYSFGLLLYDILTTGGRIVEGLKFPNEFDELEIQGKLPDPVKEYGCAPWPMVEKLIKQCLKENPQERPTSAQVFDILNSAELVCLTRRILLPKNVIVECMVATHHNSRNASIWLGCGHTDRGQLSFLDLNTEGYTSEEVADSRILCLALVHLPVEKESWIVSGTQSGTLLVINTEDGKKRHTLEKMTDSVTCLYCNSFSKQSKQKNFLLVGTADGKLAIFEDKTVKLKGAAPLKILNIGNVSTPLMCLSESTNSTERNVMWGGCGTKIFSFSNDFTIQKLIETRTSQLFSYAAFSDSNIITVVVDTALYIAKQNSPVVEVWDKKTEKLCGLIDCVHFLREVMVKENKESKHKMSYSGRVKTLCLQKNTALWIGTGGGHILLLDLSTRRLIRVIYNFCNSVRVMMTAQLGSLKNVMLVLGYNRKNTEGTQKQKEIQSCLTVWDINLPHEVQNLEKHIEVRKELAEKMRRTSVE
Sequence of MYLK (Q15746 whole entry): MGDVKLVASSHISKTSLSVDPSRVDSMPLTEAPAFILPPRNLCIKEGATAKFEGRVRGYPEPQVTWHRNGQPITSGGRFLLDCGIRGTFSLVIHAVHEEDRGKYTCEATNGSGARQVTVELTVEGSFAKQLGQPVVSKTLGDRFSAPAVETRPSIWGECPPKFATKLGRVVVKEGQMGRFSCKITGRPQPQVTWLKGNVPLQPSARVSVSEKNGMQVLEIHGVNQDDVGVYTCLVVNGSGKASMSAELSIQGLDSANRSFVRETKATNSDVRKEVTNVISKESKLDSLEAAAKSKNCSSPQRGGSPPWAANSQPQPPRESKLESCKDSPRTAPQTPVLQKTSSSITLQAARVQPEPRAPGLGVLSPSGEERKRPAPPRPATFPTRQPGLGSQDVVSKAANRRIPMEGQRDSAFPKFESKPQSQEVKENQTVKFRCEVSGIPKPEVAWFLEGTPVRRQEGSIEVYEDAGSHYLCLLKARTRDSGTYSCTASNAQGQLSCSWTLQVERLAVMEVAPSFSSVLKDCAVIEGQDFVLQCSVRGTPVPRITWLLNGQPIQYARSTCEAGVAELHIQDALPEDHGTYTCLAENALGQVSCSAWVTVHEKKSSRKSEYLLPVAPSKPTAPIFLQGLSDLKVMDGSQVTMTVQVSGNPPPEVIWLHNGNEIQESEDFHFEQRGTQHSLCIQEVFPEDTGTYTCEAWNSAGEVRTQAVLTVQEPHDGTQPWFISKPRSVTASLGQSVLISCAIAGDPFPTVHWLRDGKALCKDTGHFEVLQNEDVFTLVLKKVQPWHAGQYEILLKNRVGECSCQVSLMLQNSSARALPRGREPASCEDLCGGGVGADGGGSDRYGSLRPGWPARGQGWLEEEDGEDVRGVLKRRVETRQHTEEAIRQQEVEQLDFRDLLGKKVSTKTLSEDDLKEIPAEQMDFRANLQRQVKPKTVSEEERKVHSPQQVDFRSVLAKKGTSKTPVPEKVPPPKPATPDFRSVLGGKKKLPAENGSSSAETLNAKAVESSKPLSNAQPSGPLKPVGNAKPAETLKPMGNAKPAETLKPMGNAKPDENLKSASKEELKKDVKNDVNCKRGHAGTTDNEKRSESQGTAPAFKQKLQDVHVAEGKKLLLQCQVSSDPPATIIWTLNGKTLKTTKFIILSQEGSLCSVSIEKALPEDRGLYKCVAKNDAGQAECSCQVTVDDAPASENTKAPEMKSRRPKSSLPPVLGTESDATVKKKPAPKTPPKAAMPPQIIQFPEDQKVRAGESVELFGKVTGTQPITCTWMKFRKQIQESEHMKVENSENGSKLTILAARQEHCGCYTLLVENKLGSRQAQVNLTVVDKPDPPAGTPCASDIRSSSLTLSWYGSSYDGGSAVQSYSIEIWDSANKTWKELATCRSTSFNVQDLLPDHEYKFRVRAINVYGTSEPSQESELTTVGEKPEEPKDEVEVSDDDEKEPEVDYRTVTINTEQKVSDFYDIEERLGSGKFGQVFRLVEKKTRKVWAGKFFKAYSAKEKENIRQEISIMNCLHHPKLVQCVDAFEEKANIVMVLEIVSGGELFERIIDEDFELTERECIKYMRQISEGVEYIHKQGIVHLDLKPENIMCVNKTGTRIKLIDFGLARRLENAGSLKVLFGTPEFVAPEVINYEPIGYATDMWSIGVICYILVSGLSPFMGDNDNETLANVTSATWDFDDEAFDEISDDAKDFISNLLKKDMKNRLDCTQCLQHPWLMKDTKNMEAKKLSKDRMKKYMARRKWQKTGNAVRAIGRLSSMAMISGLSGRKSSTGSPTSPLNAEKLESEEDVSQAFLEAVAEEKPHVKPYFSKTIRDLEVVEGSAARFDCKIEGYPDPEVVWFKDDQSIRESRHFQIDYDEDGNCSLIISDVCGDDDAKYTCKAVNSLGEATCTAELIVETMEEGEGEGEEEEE

Compound	Ki [1] [µM]	IC50 [2] [µM]	IC50 [3] [µM]
COc1cc2nc(Nc3ccc(N4CCN(C)CC4)cc3)c3n[nH]cc3c2cc1OC [Example #134, (7,8-Dimethoxy-2H-pyrazolo[3,4-c]quinolin-4-yl)-[4-(4-methyl-piperazin-1-yl)-phenyl]-amine]	0.01 to 0.1	0.1 to 1	< 5
COc1cc2nc(Nc3ccc4cn[nH]c4c3)c3n[nH]cc3c2cc1OC [Example #136, (7,8-Dimethoxy-2H-pyrazolo[3,4-c]quinolin-4-yl)-(1H-indazol-6-yl)-amine]	0.01 to 0.1	0.1 to 1	< 5
COc1ccc2nc(Nc3ccc(OC)c(NC(C)=O)c3)c3n[nH]cc3c2c1 [Example #142, N-[2-Methoxy-5-(8-methoxy-2H-pyrazolo[3,4-c]quinolin-4-ylamino)-phenyl]-acetamide]	0.01 to 0.1	0.1 to 1	< 5
COc1ccc2nc(Nc3ccc4c(c3)COC4)c3n[nH]cc3c2c1 [Example #147, (1,3-Dihydro-isobenzofuran-5-yl)-(8-methoxy-2H-pyrazolo[3,4-c]quinolin-4-yl)-amine]	0.01 to 0.1	0.01 to 0.1	< 5
COc1ccc2nc(Nc3ccc4ncn(C)c4c3)c3n[nH]cc3c2c1 [Example #148, (8-Methoxy-2H-pyrazolo[3,4-c]quinolin-4-yl)-(3-methyl-3H-benzoimidazol-5-yl)-amine]	0.1 to 1	0.1 to 1	< 5
COc1cc2nc(Nc3cc(C4CC4)[nH]n3)c3n[nH]cc3c2cc1OC [Example #150, (5-Cyclopropyl-1H-pyrazol-3-yl)-(7,8-dimethoxy-2H-pyrazolo[3,4-c]quinolin-4-yl)-amine]	0.01 to 0.1	0.01 to 0.1	< 5
COc1ccc(Nc2nc3cc(OC)c(OC)cc3c3c[nH]nc23)cc1O [Example #152, 5-(7,8-Dimethoxy-2H-pyrazolo[3,4-c]quinolin-4-ylamino)-2-methoxy-phenol]	0.01 to 0.1	0.1 to 1	< 5
COc1ccc2nc(Nc3ccc4c(c3)nc3n4CCN(C)C3)c3n[nH]cc3c2c1 [Example #160, (8-Methoxy-2H-pyrazolo[3,4-c]quinolin-4-yl)-(2-methyl-1,2,3,4-tetrahydro-benzo[4,5]imidazo[1,2-a]pyrazin-8-yl)-amine]	0.01 to 0.1	0.1 to 1	< 5
COc1ccc2nc(Nc3ccc(O)c(O)c3)c3n[nH]cc3c2c1 [Example #162, 4-(8-Methoxy-2H-pyrazolo[3,4-c]quinolin-4-ylamino)-benzene-1,2-diol]	0.01 to 0.1	0.1 to 1	< 5
COc1ccc2nc(Nc3ccc(N(C)C4CCN(C)CC4)cc3)c3n[nH]cc3c2c1 [Example #192, N-(8-Methoxy-2H-pyrazolo[3,4-c]quinolin-4-yl)-N′-methyl-N′-(1-methyl-piperidin-4-yl)-benzene-1,4-diamine]	0.01 to 0.1	0.01 to 0.1	< 5

Continued, values first:

Ki [1] [µM]	IC50 [2] [µM]	IC50 [3] [µM]	Compound
0.01 to 0.1	0.1 to 1	< 5	COc1ccc2nc(Nc3ccc(OC4CCN(C)CC4)cc3)c3n[nH]cc3c2c1 [Example #163, (8-Methoxy-2H-pyrazolo[3,4-c]quinolin-4-yl)-[4-(1-methyl-piperidin-4-yloxy)-phenyl]-amine]
< 0.01	0.01 to 0.1	< 5	COc1ccc2nc(Nc3ccc(N4CCN(C(C)=O)CC4)cc3)c3n[nH]cc3c2c1 [Example #164, 1-{4-[4-(8-Methoxy-2H-pyrazolo[3,4-c]quinolin-4-ylamino)-phenyl]-piperazin-1-yl}-ethanone]
0.01 to 0.1	0.01 to 0.1	< 5	COc1ccc2nc(Nc3ccc(N4CCN(C)CC4)nc3)c3n[nH]cc3c2c1 [Example #165, (8-Methoxy-2H-pyrazolo[3,4-c]quinolin-4-yl)-[6-(4-methyl-piperazin-1-yl)-pyridin-3-yl]-amine]
0.01 to 0.1	0.1 to 1	< 5	COc1cccc2c1nc(Nc1ccc(N3CCN(C)CC3)cc1)c1n[nH]cc12 [Example #166, (6-Methoxy-2H-pyrazolo[3,4-c]quinolin-4-yl)-[4-(4-methyl-piperazin-1-yl)-phenyl]-amine]
0.01 to 0.1	0.1 to 1	< 5	COc1ccc(Nc2nc3c(OC)cccc3c3c[nH]nc23)cc1OC [Example #167, (3,4-Dimethoxy-phenyl)-(6-methoxy-2H-pyrazolo[3,4-c]quinolin-4-yl)-amine]
< 0.01	0.01 to 0.1	< 5	COc1cccc2c1nc(Nc1cc(C3CC3)[nH]n1)c1n[nH]cc12 [Example #169, (5-Cyclopropyl-1H-pyrazol-3-yl)-(6-methoxy-2H-pyrazolo[3,4-c]quinolin-4-yl)-amine]
0.01 to 0.1	0.1 to 1	< 5	COc1cccc2c1nc(Nc1ccc3cn[nH]c3c1)c1n[nH]cc12 [Example #171, (1H-Indazol-6-yl)-(6-methoxy-2H-pyrazolo[3,4-c]quinolin-4-yl)-amine]
0.01 to 0.1	0.1 to 1	< 5	COc1ccc2c(c1)nc(Nc1ccc3cn[nH]c3c1)c1n[nH]cc12 [Example #172, (1H-Indazol-6-yl)-(7-methoxy-2H-pyrazolo[3,4-c]quinolin-4-yl)-amine]
0.01 to 0.1	0.1 to 1	< 5	COc1ccc2nc(Nc3ccc(N4CCN(C5CC5)CC4)cc3)c3n[nH]cc3c2c1 [Example #179, [4-(4-Cyclopropyl-piperazin-1-yl)-phenyl]-(8-methoxy-2H-pyrazolo[3,4-c]quinolin-4-yl)-amine]
0.01 to 0.1	0.01 to 0.1	< 5	COc1ccc2nc(Nc3ccc(N4CCN(C)CC4)c(C)c3)c3n[nH]cc3c2c1 [Example #183, (8-Methoxy-2H-pyrazolo[3,4-c]quinolin-4-yl)-[3-methyl-4-(4-methyl-piperazin-1-yl)-phenyl]-amine]
< 0.01	0.1 to 1	< 5	COc1ccc2nc(Nc3ccc(N4CCNCC4)cc3)c3n[nH]cc3c2c1 [Example #184, (8-Methoxy-2H-pyrazolo[3,4-c]quinolin-4-yl)-(4-piperazin-1-yl-phenyl)-amine]
0.01 to 0.1	0.1 to 1	< 5	COc1ccc2nc(Nc3ccc(CN(C)C)cc3)c3n[nH]cc3c2c1 [Example #185, (4-Dimethylaminomethyl-phenyl)-(8-methoxy-2H-pyrazolo[3,4-c]quinolin-4-yl)-amine]
< 0.01	0.01 to 0.1	< 5	CCN1CCN(c2ccc(Nc3nc4ccc(OC)cc4c4c[nH]nc34)cc2)CC1 [Example #187, [4-(4-Ethyl-piperazin-1-yl)-phenyl]-(8-methoxy-2H-pyrazolo[3,4-c]quinolin-4-yl)-amine]
< 0.01	0.01 to 0.1	< 5	COc1ccc2nc(Nc3ccc4c(c3)NC(=O)CCC4)c3n[nH]cc3c2c1 [Example #188, 8-(8-Methoxy-2H-pyrazolo[3,4-c]quinolin-4-ylamino)-1,3,4,5-tetrahydro-benzo[b]azepin-2-one]
0.01 to 0.1	0.1 to 1	< 5	COc1ccc2nc(Nc3ccc(CCN4CCOCC4)cc3)c3n[nH]cc3c2c1 [Example #193, (8-Methoxy-2H-pyrazolo[3,4-c]quinolin-4-yl)-[4-(2-morpholin-4-yl-ethyl)-phenyl]-amine]
